Test results taken from US9067934B2, “Bicyclic pyridinones” (Pfizer Inc., priority 2011, dated 2015).
Where a name gives a salt, the structure may show the parent alone. Read-outs that look alike come from different tables or passages of the source.

System: production of amyloid beta protein Aβ(1-42) (γ-secretase) in human WT-APP overexpressing CHO cells
Test: Cell-Based γ-Secretase Assay with ELISA Readout
Settings: read-out: Aβ 42B IC50 (Geometric Mean of 2-6 Determinations)
Method: Cell-Based γ-Secretase Assay with ELISA Readout
The ability of compounds to modulate production of amyloid beta protein Aβ(1-42) was determined using human WT-APP overexpressing CHO cells. Cells were plated at 22,000 cells/100 μL well in 96 well tissue culture treated, clear plates (Falcon) in DMEM/F12 based medium and incubated for 24 hours at 37° C. Compounds for testing were diluted in 100% DMSO to achieve an eleven points, half log, dose response for IC50 determinations. Compounds were added in fresh medium to achieve 1% final DMSO. Appropriate vehicle or inhibitor controls were added into control wells individually to obtain minimum or maximum inhibition values, respectively, for the assay signal window before the plates were incubated for ˜24 hours at 37° C. This procedure produces conditioned media in each well which is tested for Aβ(1-42) levels in the ELISA detection step described next. The remaining cell cultures in each well are also tested for cell toxicity as described below.
Coating of ELISA assay plates was initiated by addition of 50 μL/well of an in-house Aβ(1-42) specific antibody at (3 μg/mL) in 0.1 M NaHCO3 (pH 9.0) into black 384-well Maxisorp® plates (Nunc) and incubated overnight at 4° C. The capture antibody was then aspirated from the ELISA assay plates and plates were washed 4×100 μL with Wash Buffer (Dulbecco's PBS, 0.05% Tween 20). 90 μL/well of Blocking Buffer (Dulbecco's PBS, 1.0% BSA (Sigma A7030)) was then added to plates. Ambient temperature incubation was allowed to proceed for a minimum of two hours. Blocking buffer was then removed and 20 μL/well Assay Buffer (Dulbecco's PBS, 1.0% BSA (Sigma A7030), 0.05% Tween 20) was then added. At this point, 40 μL (in duplicate) of experimental conditioned media (described above) were transferred into wells of the blocked ELISA plates containing the capture antibody, followed by overnight incubation at 4° C. Cell toxicity was also measured in the corresponding remaining cells after removal of the conditioned media for the Aβ(1-42) assay by a colorimetric cell proliferation assay (CellTiter 96® AQueous One Solution Cell Proliferation Assay, Promega) according to the manufacturer's instructions.
After overnight incubation of the ELISA assay plates at 4° C., unbound Aβ peptides were removed via (4×100 μL) washes with Wash Buffer. Europium (Eu) labeled (custom labeled, Perkin Elmer) Aβ(1-16) 6e10 Monoclonal Antibody (Covance #SIG-39320) was added, (50 μL/well Eu-6e10 @ 1:10,000, 20 uM EDTA) in Assay Buffer. Incubation at ambient temperature for a minimum of 2 hours was followed by (4×100 μL) washes with Wash Buffer, before 30 μL/well of Delfia Enhancement Solution (Perkin Elmer) was added. Following an one hour ambient temperature incubation, the plates were read on an EnVision plate reader (Perkin Elmer) using standard DELFIA TRF settings. Data analysis including inhibitory IC50 determination was performed using nonlinear regression fit analysis (in-house software) and the appropriate plate mean values for the maximum and minimum inhibition controls.

[1] = human WT-APP overexpressing CHO cells, ~24 hours at 37° C., Aβ(1-42) ELISA, footnotes: a = geometric mean of >15 determinations, b = single determination, c = geometric mean of 7-15 determinations

Structure (SMILES): Cc1cn(-c2ccc3n(c2=O)CCN(CCOc2cccc4ccccc24)C3=O)cn1 [Example 3, 7-(4-methyl-1H-imidazol-1-yl)-2-[2-(1-naphthyloxy)ethyl]-3,4-dihydro-2H-pyrido[1,2-a]pyrazine-1,6-dione]
- IC50 [1]: 86 nM

Structure (SMILES): Cc1cn(-c2ccc3n(c2=O)CCN(CCOc2ncc(F)cc2-c2csc(C(F)(F)F)n2)C3=O)cn1 [Example 75, 2-[2-({5-fluoro-3-[2-(trifluoromethyl)-1,3-thiazol-4-yl]pyridin-2-yl}oxy)ethyl]-7-(4-methyl-1H-imidazol-1-yl)-3,4-dihydro-2H-pyrido[1,2-a]pyrazine-1,6-dione]
- IC50 [1]: 62.3 nM

Structure (SMILES): Cc1cn(-c2ccc3n(c2=O)CCN(CCOc2cccc4c(Cl)ccc(Cl)c24)C3=O)cn1 [Example 46, 2-{2-[(5,8-dichloro-1-naphthyl)oxy]ethyl}-7-(4-methyl-1H-imidazol-1-yl)-3,4-dihydro-2H-pyrido[1,2-a]pyrazine-1,6-dione, trifluoroacetate salt]
- IC50 [1]: 9.38 nM

Structure (SMILES): Cc1cn(-c2ccc3n(c2=O)CCN(CCOc2ccc(Cl)c(Cl)c2Cl)C3=O)cn1 [Example 27, 7-(4-methyl-1H-imidazol-1-yl)-2-[2-(2,3,4-trichlorophenoxy)ethyl]-3,4-dihydro-2H-pyrido[1,2-a]pyrazine-1,6-dione]
- IC50 [1]: 103 nM

Structure (SMILES): Cc1cn(-c2ccc3n(c2=O)CCN(CCOc2ccc(F)cc2C(F)(F)F)C3=O)cn1 [Example 1, 2-{2-[4-Fluoro-2-(trifluoromethyl)phenoxy]ethyl}-7-(4-methyl-1H-imidazol-1-yl)-3,4-dihydro-2H-pyrido[1,2-a]pyrazine-1,6-dione]
- IC50 [1]: 256 nM

Structure (SMILES): Cc1cn(-c2ccc3n(c2=O)CCN(C(C)C(C)Oc2ccccc2S(F)(F)(F)(F)F)C3=O)cn1 (single isomer, unassigned) [Example 127, 7-(4-methyl-1H-imidazol-1-yl)-2-{3-[2-(pentafluoro-λ^6-sulfanyl)phenoxy]butan-2-yl}-3,4-dihydro-2H-pyrido[1,2-a]pyrazine-1,6-dione]
- IC50 [1]: 1070 nM

Structure (SMILES): Cc1cn(-c2ccc3n(c2=O)CCN([C@@H](C)COc2ccc(F)cc2[C@@H](C)C(F)(F)F)C3=O)cn1 [Example 118, 2-[(2S)-1-{4-Fluoro-2-[(2R)-1,1,1-trifluoropropan-2-yl]phenoxy}propan-2-yl]-7-(4-methyl-1H-imidazol-1-yl)-3,4-dihydro-2H-pyrido[1,2-a]pyrazine-1,6-dione]
- IC50 [1]: < 6.64 nM

Structure (SMILES): Cc1cn(-c2ccc3n(c2=O)CCN(CCOc2ccccc2[Si](C)(C)C)C3=O)cn1 [Example 121, 7-(4-methyl-1H-imidazol-1-yl)-2-{2-[2-(trimethylsilyl)phenoxy]ethyl}-3,4-dihydro-2H-pyrido[1,2-a]pyrazine-1,6-dione]
- IC50 (CHO, 24 h): 30.2 nM

Structure (SMILES): Cc1cn(-c2ccc3n(c2=O)CCN(CCOc2ccccc2-c2sncc2C)C3=O)cn1 [Example 37, 7-(4-methyl-1H-imidazol-1-yl)-2-{2-[2-(4-methylisothiazol-5-yl)phenoxy]ethyl}-3,4-dihydro-2H-pyrido[1,2-a]pyrazine-1,6-dione, trifluoroacetate salt]
- IC50 [1]: 219 nM

Structure (SMILES): Cc1cn(-c2ccc3n(c2=O)CCN(CCOc2cc(Cl)c(Cl)cc2Cl)C3=O)cn1 [Example 30, 7-(4-methyl-1H-imidazol-1-yl)-2-[2-(2,4,5-trichlorophenoxy)ethyl]-3,4-dihydro-2H-pyrido[1,2-a]pyrazine-1,6-dione]
- IC50 [1]: 132 nM

Structure (SMILES): Cc1cn(-c2ccc3n(c2=O)CCN(CCOc2cc(C(F)(F)F)nc4c(C)cc(Cl)cc24)C3=O)cn1 [Example 62, 2-(2-{[6-chloro-8-methyl-2-(trifluoromethyl)quinolin-4-yl]oxy}ethyl)-7-(4-methyl-1H-imidazol-1-yl)-3,4-dihydro-2H-pyrido[1,2-a]pyrazine-1,6-dione]
- IC50 [1]: 39.7 nM

Structure (SMILES): Cc1cn(-c2ccc3n(c2=O)CCN(CCOc2ccc(F)c(C(F)(F)F)c2Cl)C3=O)cn1 [Example 35, 2-{2-[2-chloro-4-fluoro-3-(trifluoromethyl)phenoxy]ethyl}-7-(4-methyl-1H-imidazol-1-yl)-3,4-dihydro-2H-pyrido[1,2-a]pyrazine-1,6-dione, trifluoroacetate salt]
- IC50 [1]: 133 nM

Structure (SMILES): Cc1cn(-c2ccc3n(c2=O)CCN(CCOc2cccc4oc5ccccc5c24)C3=O)cn1 [Example 42, 2-[2-(dibenzo[b,d]furan-1-yloxy)ethyl]-7-(4-methyl-1H-imidazol-1-yl)-3,4-dihydro-2H-pyrido[1,2-a]pyrazine-1,6-dione, trifluoroacetate salt]
- IC50 [1]: 5.31 nM

Structure (SMILES): Cc1cn(-c2ccc3n(c2=O)CCN(C(C)C(C)Oc2ccccc2S(F)(F)(F)(F)F)C3=O)cn1 (single isomer, unassigned) [Example 124, 7-(4-methyl-1H-imidazol-1-yl)-2-{3-[2-(pentafluoro-λ^6-sulfanyl)phenoxy]butan-2-yl}-3,4-dihydro-2H-pyrido[1,2-a]pyrazine-1,6-dione]
- IC50 [1]: 2310 nM

Structure (SMILES): Cc1ccc(-c2ccccc2OCCN2CCn3c(ccc(-n4cnc(C)c4)c3=O)C2=O)cc1 [Example 93, 2-{2-[(4′-methylbiphenyl-2-yl)oxy]ethyl}-7-(4-methyl-1H-imidazol-1-yl)-3,4-dihydro-2H-pyrido[1,2-a]pyrazine-1,6-dione, formate salt]
- IC50 [1]: 75.8 nM

Structure (SMILES): CCC(COc1ccc(Cl)cc1C(F)(F)F)N1CCn2c(ccc(-n3cnc(C)c3)c2=O)C1=O (stereo not shown) [Example 100, 2-{1-[4-chloro-2-(trifluoromethyl)phenoxy]butan-2-yl}-7-(4-methyl-1H-imidazol-1-yl)-3,4-dihydro-2H-pyrido[1,2-a]pyrazine-1,6-dione, trifluoroacetate salt]
- IC50 [1]: 135 nM

Structure (SMILES): Cc1cn(-c2ccc3n(c2=O)CCN(CCOc2ccc(F)cc2-c2csc(C(F)(F)F)n2)C3=O)cn1 [Example 52, 2-(2-{4-fluoro-2-[2-(trifluoromethyl)-1,3-thiazol-4-yl]phenoxy}ethyl)-7-(4-methyl-1H-imidazol-1-yl)-3,4-dihydro-2H-pyrido[1,2-a]pyrazine-1,6-dione]
- IC50 [1]: 23.5 nM

Structure (SMILES): Cc1cn(-c2ccc3n(c2=O)CCN([C@@H](C)COc2ccc(Cl)cc2C(C)(C)C(F)(F)F)C3=O)cn1 [Example 117, 2-{(2S)-1-[4-Chloro-2-(1,1,1-trifluoro-2-methylpropan-2-yl)phenoxy]propan-2-yl}-7-(4-methyl-1H-imidazol-1-yl)-3,4-dihydro-2H-pyrido[1,2-a]pyrazine-1,6-dione]
- IC50 [1]: 3.54 nM

Structure (SMILES): Cc1cn(-c2ccc3n(c2=O)CCN(CCOc2cc(C(F)(F)F)nc4c(Cl)cccc24)C3=O)cn1 [Example 63, 2-(2-{[8-chloro-2-(trifluoromethyl)quinolin-4-yl]oxy}ethyl)-7-(4-methyl-1H-imidazol-1-yl)-3,4-dihydro-2H-pyrido[1,2-a]pyrazine-1,6-dione]
- IC50 [1]: 76.6 nM

Structure (SMILES): Cc1cn(-c2ccc3n(c2=O)CCN(CCOc2ccccc2-c2cccc(F)c2)C3=O)cn1 [Example 88, 2-{2-[(3′-fluorobiphenyl-2-yl)oxy]ethyl}-7-(4-methyl-1H-imidazol-1-yl)-3,4-dihydro-2H-pyrido[1,2-a]pyrazine-1,6-dione, formate salt]
- IC50 [1]: 75.4 nM

Structure (SMILES): Cc1ccc(OCCN2CCn3c(ccc(-n4cnc(C)c4)c3=O)C2=O)c(-c2cc(C(F)(F)F)on2)c1 [Example 38, 7-(4-methyl-1H-imidazol-1-yl)-2-(2-{4-methyl-2-[5-(trifluoromethyl)isoxazol-3-yl]phenoxy}ethyl)-3,4-dihydro-2H-pyrido[1,2-a]pyrazine-1,6-dione, trifluoroacetate salt]
- IC50 [1]: 293 nM

Structure (SMILES): Cc1cn(-c2ccc3n(c2=O)CCN(CCOc2cccc(Cl)c2Cl)C3=O)cn1 [Example 33, 2-[2-(2,3-dichlorophenoxy)ethyl]-7-(4-methyl-1H-imidazol-1-yl)-3,4-dihydro-2H-pyrido[1,2-a]pyrazine-1,6-dione, trifluoroacetate salt]
- IC50 [1]: 194 nM
